From patent US12606528B2, “Methods and materials for inhibiting NF-kB activity” (University of Pittsburgh - Of the Commonwealth System of …, priority 2019, dated 2026)
Like-named read-outs stand apart in the source and are kept apart here.

Assays:
[1] = system: TNF release; test: TNF assay: TNF release from LPS-stimulated human PBMCs (TNF ELISA); format: cell-based; details: PBMC, read-out: IC50 (TNF assay)
Outline: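 TNF ELISA on supernatants read-out; cells were 10k human PBMCs/well given LPS at 10 ng/mL for 18 h after a 2 h compound pre-incubation across a concentration series, with IC50 derived for suppression of TNF secretion.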

[2] = system: NF-κB; test: NF-κB assay: THP1-NF-κB-LUC cells, LPS-stimulated secreted luciferase; format: cell-based; details: THP1-NF-κB-LUC cells, read-out: IC50 (NF-κB assay)
Outline: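 THP1-NF-κB-LUC cells (25k/well) were pretreated with compounds for 2 h, then stimulated with LPS (10 ng/mL) for 18 h. Secreted luciferase was measured and normalized to vehicle, and IC50 was fitted from the concentration series.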

[3] = LPS-stimulated human PBMCs, TNF ELISA
[4] = human PBMCs, compounds 2 hours before LPS (10 ng/ml) for 18 hours, supernatant TNF ELISA
[5] = compounds 2 hours before LPS (10 ng/mL) for 18 hours, secreted luciferase

Row | SMILES | IC50 [1, 3] [µM] | IC50 ([2]; LPS-stimulated) [µM] | IC50 [1, 4] [µM] | IC50 [2, 5] [µM]
1 | O=C1NCCOc2c1cc(Br)cc2S(=O)(=O)Nc1ccc(F)cc1 [BC19549] | > 10 | 1 to 10 | – | –
2 | O=C1NCCOc2c1cc(Br)cc2S(=O)(=O)Nc1ccc(OC(F)(F)F)cc1 [BC19550] | > 10 | < 0.1 | – | –
3 | O=C1NCCOc2c1cc(Br)cc2S(=O)(=O)Nc1ccc(F)c(F)c1 [BC19551] | > 10 | 0.1 to 1 | – | –
4 | Cc1ccc(NS(=O)(=O)c2cc(Br)cc3c2OCCNC3=O)cc1F [BC19552] | > 10 | 0.1 to 1 | – | –
5 | O=C1NCCOc2c1cc(Br)cc2S(=O)(=O)Nc1ccccc1 [BC19553] | > 10 | 1 to 10 | – | –
6 | COCCCNS(=O)(=O)c1ccc2nc(-c3ccc(F)cc3)c(-c3ccc(F)cc3)nc2c1 [BC19554] | > 10 | < 0.1 | – | –
7 | CN(C)CCNS(=O)(=O)c1ccc2nc(-c3ccc(F)cc3)c(-c3ccc(F)cc3)nc2c1 [BC19555] | 1 to 10 | < 0.1 | – | –
8 | CCNS(=O)(=O)c1ccc2nc(-c3ccc(F)cc3)c(-c3ccc(F)cc3)nc2c1 [BC19556] | > 10 | 0.1 to 1 | – | –
9 | O=S(=O)(NCc1cccnc1)c1ccc2nc(-c3ccc(F)cc3)c(-c3ccc(F)cc3)nc2c1 [BC19557] | > 10 | < 0.1 | – | –
10 | O=S(=O)(NCc1ccncc1)c1ccc2nc(-c3ccc(F)cc3)c(-c3ccc(F)cc3)nc2c1 [BC19558] | > 10 | 0.1 to 1 | – | –
11 | O=S(=O)(NCc1ccccn1)c1ccc2nc(-c3ccc(F)cc3)c(-c3ccc(F)cc3)nc2c1 [BC19559] | > 10 | < 0.1 | – | –
12 | O=C1CCCN1CCCNS(=O)(=O)c1ccc2nc(-c3ccc(F)cc3)c(-c3ccc(F)cc3)nc2c1 [BC19560] | > 10 | < 0.1 | – | –
13 | Cc1ccc(-c2nc3ccc(S(=O)(=O)NCCCN4CCN(C)CC4)cc3nc2-c2ccc(C)cc2)cc1 [BC19561] | > 10 | 0.1 to 1 | – | –
14 | CN(C)CCCNS(=O)(=O)c1ccc2nc(-c3ccc(F)cc3)c(-c3ccc(F)cc3)nc2c1 [BC19562] | 1 to 10 | 0.1 to 1 | – | –
15 | CCNC(=O)Nc1ccc2nc(-c3ccc(F)cc3)c(-c3ccc(F)cc3)nc2c1 [BC19563] | > 10 | < 0.1 | – | –
16 | CN(C)CCNC(=O)Nc1ccc2nc(-c3ccc(F)cc3)c(-c3ccc(F)cc3)nc2c1 [BC19564] | 1 to 10 | < 0.1 | – | –
17 | COCCNC(=O)Nc1ccc2nc(-c3ccc(F)cc3)c(-c3ccc(F)cc3)nc2c1 [BC19565] | > 10 | < 0.1 | – | –
18 | O=C(NCCO)Nc1ccc2nc(-c3ccc(F)cc3)c(-c3ccc(F)cc3)nc2c1 [BC19566] | > 10 | < 0.1 | – | –
19 | O=C(NCCN1CCOCC1)Nc1ccc2nc(-c3ccc(F)cc3)c(-c3ccc(F)cc3)nc2c1 [BC19567] | 1 to 10 | 0.1 to 1 | – | –
20 | O=C(Nc1ccc2nc(-c3ccc(F)cc3)c(-c3ccc(F)cc3)nc2c1)NC1CC1 [BC19568] | > 10 | 0.1 to 1 | – | –
21 | O=C(NCC1CC1)Nc1ccc2nc(-c3ccc(F)cc3)c(-c3ccc(F)cc3)nc2c1 [BC19569] | > 10 | 0.1 to 1 | – | –
22 | O=C(NCc1ccccn1)Nc1ccc2nc(-c3ccc(F)cc3)c(-c3ccc(F)cc3)nc2c1 [BC19570] | > 10 | 0.1 to 1 | – | –
23 | O=C(NCc1cccnc1)Nc1ccc2nc(-c3ccc(F)cc3)c(-c3ccc(F)cc3)nc2c1 [BC19571] | 1 to 10 | 0.1 to 1 | – | –

Row | SMILES | IC50 [1, 3] [µM] | IC50 ([2]; LPS-stimulated) [µM] | IC50 [1, 4] [µM] | IC50 [2, 5] [µM]
24 | O=C(NCc1ccncc1)Nc1ccc2nc(-c3ccc(F)cc3)c(-c3ccc(F)cc3)nc2c1 [BC19572] | > 10 | 0.1 to 1 | – | –
25 | CN(C)CCCNC(=O)Nc1ccc2nc(-c3ccc(F)cc3)c(-c3ccc(F)cc3)nc2c1 [BC19573] | 0.1 to 1 | 0.1 to 1 | – | –
26 | COCCCNC(=O)Nc1ccc2nc(-c3ccc(F)cc3)c(-c3ccc(F)cc3)nc2c1 [BC19574] | > 10 | 0.1 to 1 | – | –
27 | O=C(NCCCO)Nc1ccc2nc(-c3ccc(F)cc3)c(-c3ccc(F)cc3)nc2c1 [BC19575] | > 10 | 0.1 to 1 | – | –
28 | O=C(NCCCN1CCOCC1)Nc1ccc2nc(-c3ccc(F)cc3)c(-c3ccc(F)cc3)nc2c1 [BC19576] | > 10 | 0.1 to 1 | – | –
29 | CN1CCN(Cc2ccc3nc(-c4ccc(F)cc4)c(-c4ccc(F)cc4)nc3c2)CC1 [BC19577] | > 10 | 0.1 to 1 | – | –
30 | CN1CCN(C(=O)c2ccc3nc(-c4ccc(F)cc4)c(Nc4ccc(F)cc4)nc3c2)CC1 [BC19578] | > 10 | > 10 | – | –
31 | O=c1[nH]ccc2cc(S(=O)(=O)c3ccccc3)ccc12 [BC19579] | – | – | > 10 | > 10
32 | O=c1[nH]ccc2cc(Sc3ccc(F)cc3)ccc12 [BC19580] | – | – | > 10 | > 10
33 | CC(C)S(=O)(=O)c1[nH]c(-c2ccccc2)nc1S(=O)(=O)c1ccc(F)cc1 [BC19581] | > 10 | > 10 | – | –
34 | CC(C)C[S+]([O-])c1[nH]c(-c2ccccc2)nc1S(=O)(=O)c1ccc(F)cc1 (centres unmarked) [BC19582] | > 10 | 1 to 10 | – | –
35 | O=S(=O)(c1ccc(Cl)cc1)c1nc(-c2cccc(F)c2)sc1S(=O)(=O)C1CCCCC1 [BC19583] | > 10 | > 10 | – | –
36 | CC(C)[S+]([O-])c1[nH]c(-c2ccccc2)nc1S(=O)(=O)c1ccc(Cl)cc1 (centres unmarked) [BC19584] | > 10 | 1 to 10 | – | –
37 | CCC[S+]([O-])c1[nH]c(-c2ccccc2)nc1S(=O)(=O)c1ccc(F)cc1 (centres unmarked) [BC19585] | > 10 | 1 to 10 | – | –
38 | O=S(=O)(c1ccc(F)cc1)c1nc(-c2ccccc2)[nH]c1[S+]([O-])C1CCCCC1 (centres unmarked) [BC19586] | > 10 | 1 to 10 | – | –
39 | COCCS(=O)(=O)c1sc(-c2cccc(F)c2)nc1S(=O)(=O)c1ccc(F)cc1 [BC19587] | 1 to 10 | 1 to 10 | – | –
40 | CC(C)C[S+]([O-])c1sc(-c2cccc(F)c2)nc1S(=O)(=O)c1ccc(F)cc1 (centres unmarked) [BC19588] | > 10 | 1 to 10 | – | –
41 | CCCS(=O)(=O)c1sc(-c2cccc(F)c2)nc1S(=O)(=O)c1ccc(F)cc1 [BC19589] | 1 to 10 | 1 to 10 | – | –
42 | CCC[S+]([O-])c1sc(-c2cccc(F)c2)nc1S(=O)(=O)c1ccc(F)cc1 (centres unmarked) [BC19590] | 1 to 10 | 1 to 10 | – | –
43 | CC(C)[S+]([O-])c1sc(-c2cccc(F)c2)nc1S(=O)(=O)c1ccc(F)cc1 (centres unmarked) [BC19591] | 1 to 10 | 1 to 10 | – | –
44 | O=S(=O)(CC1CC1)c1sc(-c2cccc(F)c2)nc1S(=O)(=O)c1ccc(Cl)cc1 [BC19592] | 1 to 10 | 1 to 10 | – | –
45 | CC(C)C[S+]([O-])c1sc(-c2ccc(Cl)cc2)nc1S(=O)(=O)c1ccc(F)cc1 (centres unmarked) [BC19593] | 1 to 10 | 0.1 to 1 | – | –
46 | O=S(=O)(c1ccc(F)cc1)c1nc(-c2ccc(Cl)cc2)sc1[S+]([O-])C1CCCCC1 (centres unmarked) [BC19594] | > 10 | > 10 | – | –

Row | SMILES | IC50 [1, 3] [µM] | IC50 ([2]; LPS-stimulated) [µM] | IC50 [1, 4] [µM] | IC50 [2, 5] [µM]
47 | C[S+]([O-])c1sc(-c2cccc(F)c2)nc1S(=O)(=O)c1ccc(F)cc1 (centres unmarked) [BC19595] | 0.1 to 1 | 0.1 to 1 | – | –
48 | CS(=O)(=O)c1sc(-c2cccc(F)c2)nc1S(=O)(=O)c1ccc(F)cc1 [BC19596] | 1 to 10 | 0.1 to 1 | – | –
49 | O=S(=O)(c1ccc(F)cc1)c1nc(-c2cccc(F)c2)sc1[S+]([O-])CC1CC1 (centres unmarked) [BC19597] | > 10 | 1 to 10 | – | –
50 | O=S(=O)(CC1CC1)c1sc(-c2cccc(F)c2)nc1S(=O)(=O)c1ccc(F)cc1 [BC19598] | 1 to 10 | 1 to 10 | – | –
51 | COCC[S+]([O-])c1sc(-c2cccc(F)c2)nc1S(=O)(=O)c1ccc(F)cc1 (centres unmarked) [BC19599] | 1 to 10 | 1 to 10 | – | –
52 | CCC[S+]([O-])c1c(S(=O)(=O)c2ccc(F)cc2)nc(-c2ccccc2)n1C (centres unmarked) [BC19600] | > 10 | > 10 | – | –
53 | CC(C)[S+]([O-])c1c(S(=O)(=O)c2ccc(F)cc2)nc(-c2ccccc2)n1C (centres unmarked) [BC19601] | > 10 | > 10 | – | –
54 | Cn1c(-c2ccccc2)nc(S(=O)(=O)c2ccc(F)cc2)c1[S+]([O-])CC1CC1 (centres unmarked) [BC19602] | > 10 | > 10 | – | –
55 | O=C1NCCOc2c1cc(Br)cc2S(=O)(=O)Nc1ccc(Cl)cc1 [BC19603] | > 10 | 0.1 to 1 | – | –
56 | CCc1ccc(NS(=O)(=O)c2cc(Br)cc3c2OCCNC3=O)cc1 [BC19604] | > 10 | 1 to 10 | – | –
57 | CC(C)c1ccc(NS(=O)(=O)c2cc(Br)cc3c2OCCNC3=O)cc1 [BC19605] | > 10 | > 10 | – | –
58 | COc1ccc(NS(=O)(=O)c2cc(Br)cc3c2OCCNC3=O)cc1 [BC19606] | > 10 | 1 to 10 | – | –
59 | Cc1ccc(NS(=O)(=O)c2cc(Br)cc3c2OCCNC3=O)cc1Cl [BC19607] | > 10 | 0.1 to 1 | – | –
60 | O=C1NCCOc2c1cc(Br)cc2S(=O)(=O)Nc1ccc(F)cc1F [BC19608] | > 10 | 1 to 10 | – | –
61 | CCc1cccc(NS(=O)(=O)c2cc(Br)cc3c2OCCNC3=O)c1 [BC19609] | > 10 | 1 to 10 | – | –
62 | O=C1NCCOc2c1cc(Br)cc2S(=O)(=O)Nc1cccc(F)c1 [BC19610] | > 10 | 0.1 to 1 | – | –
63 | O=C1NCCOc2c1cc(Br)cc2S(=O)(=O)Nc1cccc(Cl)c1 [BC19611] | > 10 | < 0.1 | – | –
64 | Cc1ccc(NS(=O)(=O)c2cc(Br)cc3c2OCCNC3=O)cc1 [BC19612] | > 10 | 1 to 10 | – | –
65 | O=C1NCCOc2c1cc(Br)cc2S(=O)(=O)Nc1ccc(F)cc1Cl [BC19613] | > 10 | > 10 | – | –
66 | COc1ccc(NS(=O)(=O)c2cc(Br)cc3c2OCCNC3=O)cc1Cl [BC19614] | > 10 | > 10 | – | –
67 | N#Cc1ccc(NS(=O)(=O)c2cc(Br)cc3c2OCCNC3=O)cc1 [BC19615] | > 10 | 0.1 to 1 | – | –
